Test results published in patent US20250213707A1, “COMPOUND FOR INCREASING EFFICACY OF ONCOLYTIC VIRUSES” (ABLEVIA BIOTECH GMBH, priority 2022, published 2025).

system: polyclonal antibody ab6982; assay: Epitope mapping of polyclonal antibody ab6982 against cyclic peptides of Ad5 fiber and hexon (peptide array); assay type: binding, rabbits; details: cyclic peptides of fiber protein (clusters 1-7)
Excerpt: Polyclonal antibody ab6982 (Abcam) was generated by immunizing rabbits with purified AdV. It reacts with all capsid proteins of Ad5 including hexon, fiber and penton. It was shown that the antibody neutralizes Ad5 infection in a bioassay at 1000 adenovirus 5 particles/ml, a 50% inactivation of the adenovirus can be achieved at a 1/25,000 dilution of the antibody. In order to identify epitopic regions that could contain peptides for ab6982 paratope binding, the antibody was mapped against the sequences of fiber (NCBI Reference Sequence: AP 000226.1) and hexon protein (GenBank: BAG48782.1). […] The binding signal of this antibody to the array yielded several peptides that were aligned and clustered against the sequence of the protein. The peptide clusters were named cluster1-7 (fiber protein) and clusters8-16 (hexon protein) according to their ranked order of cyclic peptide hits (i.e. cluster contains the strongest binders, cluster2 the second strongest etc.). Below are the aligments of the corresponding peptides that bind to polyclonal antibody ab6982.

Substance	antibody binding signal ranking from the microarray experiment
191 (LNNSFLD) [compound 191]	180
186 (NNSFLDPEYW) [compound 186]	068
183 (NNSFLDPEYWNFR) [compound 183]	034
177 (FSWDWSG) [compound 177]	186
180 (SFLDPEYWNF) [compound 180]	018
193 (SSYTFSY) [compound 193]	042
188 (EYWNFRN) [compound 188]	113
178 (SWDWSGH) [compound 178]	193
179 (FLDPEYWNFR) [compound 179]	017
202 (IFATSSY) [compound 202]	104
198 (EIFATSSYTF) [compound 198]	089
200 (ATSSYTFSYI) [compound 200]	097
185 (DPEYWNF) [compound 185]	053
174 (SWDWSGHNYI) [compound 174]	149

same assay, conditions: cyclic peptides of hexon protein (clusters 8-16)

Substance	antibody binding signal ranking from the microarray experiment
234 (DEVDEQAEQQ) [compound 234]	26
269 (VDIETPDTHI) [compound 269]	046
290 (YSFFRNF) [compound 290]	104
299 (GDRTRYF) [compound 299]	080
296 (PESYKDRMYSFFR) [compound 296]	153
253 (EEDDDNEDEV) [compound 253]	185
303 (DRMYSFFRNF) [compound 303]	072
212 (TALEINLEEEDDD) [compound 212]	05
301 (DSIGDRTRYFSMW) [compound 301]	100
235 (EINLEEEDDDNED) [compound 235]	028
308 (IGYQGFY) [compound 308]	136
291 (IPESYKDRMYSFF) [compound 291]	107
302 (GDRTRYFSMW) [compound 302]	101
298 (TRYFSMW) [compound 298]	073
293 (ESYKDRMYSF) [compound 293]	127
248 (EEEDDDNEDE) [compound 248]	097
218 (LEINLEEEDDDNE) [compound 218]	13
223 (NLEEEDDDNE) [compound 223]	27
243 (EDDDNED) [compound 243]	063
226 (DDNEDEVDEQAEQ) [compound 226]	16
236 (NLEEEDDDNEDEV) [compound 236]	029

Substance	antibody binding signal ranking from the microarray experiment
216 (TALEINLEEE) [compound 216]	09
227 (EVDEQAE) [compound 227]	17
263 (EWDEAATALEINL) [compound 263]	112
266 (LYSEDVDIETPDT) [compound 266]	040
249 (EEDDDNE) [compound 249]	108
305 (NYNIGYQGFY) [compound 305]	106
250 (EDDDNEDEVD) [compound 250]	121
265 (LYSEDVDIET) [compound 265]	039
297 (YKDRMYSFFR) [compound 297]	160
211 (LEINLEE) [compound 211]	04
220 (EINLEEEDDD) [compound 220]	15
275 (VLYSEDVDIETPD) [compound 275]	052
264 (EAATALEINL) [compound 264]	124
273 (SEDVDIETPDTHI) [compound 273]	050
304 (SYKDRMYSFFRNF) [compound 304]	099
300 (DSIGDRTRYF) [compound 300]	095
284 (DIETPDTHISYMP) [compound 284]	064
309 (FLVQMLANYNIGY) [compound 309]	184
292 (SYKDRMYSFF) [compound 292]	120
230 (EDEVDEQAEQQKT) [compound 230]	21
255 (EVDEQAEQQK) [compound 255]	030

Substance	antibody binding signal ranking from the microarray experiment
240 (DDDNEDEVDEQAE) [compound 240]	037
237 (INLEEED) [compound 237]	032
285 (EDVDIETPDT) [compound 285]	070
281 (VDIETPDTHISYM) [compound 281]	060
228 (DNEDEVDEQA) [compound 228]	18
233 (NEDEVDEQAEQQK) [compound 233]	25
210 (EAATALEINLEEE) [compound 210]	03
307 (MLANYNIGYQGFY) [compound 307]	123
219 (AATALEINLEEED) [compound 219]	14
251 (EDEVDEQ) [compound 251]	126
289 (DRMYSFF) [compound 289]	086
283 (DIETPDT) [compound 283]	062
294 (KDRMYSF) [compound 294]	143
258 (EVDEQAEQQKTHV) [compound 258]	038
282 (PKVVLYSEDVDIE) [compound 282]	061
259 (VDEQAEQQKTHVF) [compound 259]	041
241 (LEEEDDDNEDEVD) [compound 241]	053
256 (DNEDEVDEQAEQQ) [compound 256]	031
310 (NIGYQGF) [compound 310]	187
